For the assay, the target named is cGMP-specific 3',5'-cyclic phosphodiesterase (Homo sapiens, UniProt O76074). Description: Inhibition of PDE5.

In general, IC50 refers to the concentration at which inhibition is half-maximal. As to `CCCc1nn(C)c2c(=O)[nH]c(-c3cc(S(=O)(=O)N4CCN(C)CC4)cc4c3OCO4)nc12`, the IC50 stood at 426 nM.

Source of the values: BindingDB's records for doi:10.1016/j.bmcl.2007.05.064 (Sungkyunkwan University, 2007).
